In a compilation of properties of binary mixtures (doi:10.4028/www.scientific.net/amr.864-867.125):

Assay: xn = mol fraction of the nth substance listed
Details: 101 kPa

CCCC[n+]1ccn(C)c1.F[P-](F)(F)(F)(F)F + Cc1ccccc1
viscosity [mPa·s]
Details	x2 = 0.05	x2 = 0.1	x2 = 0.2	x2 = 0.3	x2 = 0.4
298.15 K	–	149.5	111.5	67.3	42.9
300.65 K	126.7	99.9	–	50.1	–
303.15 K	98	–	55.7	–	24.6
305.65 K	79	57.3	44.2	–	20.42
308.15 K	65.7	47	36.8	–	17.61
310.65 K	56	–	31.7	24	15.61
313.15 K	48.7	34.7	27.9	21.33	–
315.65 K	43.1	30.8	25.1	19.23	12.97
318.15 K	38.7	27.8	22.96	–	12.06
320.65 K	35.1	25.4	21.23	–	–
323.15 K	32.2	23.49	19.82	15.09	10.71
325.65 K	29.8	21.91	18.66	14.15	10.21
328.15 K	–	20.59	17.68	13.36	9.77
330.65 K	–	19.47	16.85	12.68	9.4
333.15 K	24.5	18.52	16.14	12.09	9.08
335.65 K	23.16	17.69	15.52	11.58	–
338.15 K	–	16.96	14.98	11.13	8.56
